The source made the active and inactive calls. The rule behind the calls is not given here. Square brackets hold non-standard residues; d marks the D form. Peptide text beside a SMILES is read from it. NMeF = CN[C@@H](Cc1ccccc1)C(=O)O; NMeV = CN[C@H](C(=O)O)C(C)C
Experiments:
Staphylococcus aureus [1] = assay: Antimicrobial activity against Staphylococcus aureus at 100 ug/ml by agar diffusion test; type: functional, organism-based
Staphylococcus aureus [2] = assay: Antimicrobial activity against methicillin-resistant Staphylococcus aureus at 100 ug/ml by agar diffusion test; type: functional, organism-based

SMILES	Activity (Staphylococcus aureus [1])	Activity (Staphylococcus aureus [2])
CC(C)[C@@H]1NC(=O)[C@H](C(C)C)N(C)C(=O)[C@H](C(C)C)NC(=O)[C@H](Cc2ccccc2)N(C)C(=O)[C@H](Cc2ccccc2)NC1=O (cyclo(F[NMeF]V[NMeV]V))	inactive	inactive
CC(C)[C@@H]1NC(=O)[C@H](Cc2ccccc2)N(C)C(=O)[C@H](C(C)C)NC(=O)[C@H](C(C)C)N(C)C(=O)[C@H](Cc2ccccc2)NC1=O (cyclo(F[NMeV]V[NMeF]V))	inactive	inactive
